Measurements from PubChem BioAssay (NCI).
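Exposure lasted 48 hours, with cells grown in 96-well plates and compounds tested at five concentrations. Abbreviation: GI50, concentration required for 50% inhibition of growth. TGI is the concentration that stops growth completely.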

Assays:
Assay in all cases: DTP human tumour cell line panel, 48 h
NCI-H23 lung = tested on: NCI-H23 lung
HCT-116 colon = tested on: HCT-116 colon
SW-620 colon = tested on: SW-620 colon
MALME-3M melanoma = tested on: MALME-3M melanoma
HCC-2998 colon = tested on: HCC-2998 colon
OVCAR-5 ovarian = tested on: OVCAR-5 ovarian
COLO 205 colon = tested on: COLO 205 colon
SF-268 CNS = tested on: SF-268 CNS
OVCAR-4 ovarian = tested on: OVCAR-4 ovarian
MDA-MB-231 breast = tested on: MDA-MB-231 breast

Row | Structure (SMILES) | TGI (NCI-H23 lung) [µM] | TGI (HCT-116 colon) [µM] | TGI (SW-620 colon) [µM] | TGI (MALME-3M melanoma) [µM] | TGI (HCC-2998 colon) [µM] | TGI (OVCAR-5 ovarian) [µM] | TGI (COLO 205 colon) [µM] | TGI (SF-268 CNS) [µM] | TGI (OVCAR-4 ovarian) [µM] | GI50 (NCI-H23 lung) [µM] | GI50 (HCT-116 colon) [µM] | GI50 (SW-620 colon) [µM] | GI50 (MALME-3M melanoma) [µM] | GI50 (MDA-MB-231 breast) [µM] | TGI (MDA-MB-231 breast) [µM] | GI50 (OVCAR-5 ovarian) [µM] | GI50 (COLO 205 colon) [µM] | GI50 (SF-268 CNS) [µM] | GI50 (OVCAR-4 ovarian) [µM]
1 | CC(=O)[O-].CC(=O)[O-].O=C(N/N=C/c1cc(Cl)cc(Cl)c1O)c1ccncc1.[Ni+2] | > 100 | > 100 | 83.5 | > 100 | > 100 | > 100 | > 100 | > 100 | – | – | – | – | – | – | – | – | – | – | –
2 | Cc1ccc(-n2c3nc(=O)n(C)c(=O)c-3nc3ccccc32)cc1 | 11.8 | 61.3 | 19.6 | 27.2 | 20.6 | 45.3 | 14.8 | > 100 | 28.5 | – | – | – | – | – | – | – | – | – | –
3 | Cc1ccc(S(=O)(=O)Oc2ccc([N+](=O)[O-])cc2[N+](=O)[O-])cc1 | 32.3 | 13.2 | 24.9 | 29.8 | – | 26.6 | 18.6 | 15 | 20.4 | 6.15 | 3.16 | 4.04 | 10.7 | 6.7 | 22.1 | 8.01 | 4.51 | 3.64 | 7.51
4 | CC(C)C1C(=O)NC(CO)Cc2c[nH]c3c(C(c4c[nH]c5ccccc45)C(O)CO)ccc(c23)N1C (stereo unspecified) | > 100 | > 100 | > 100 | – | 18.5 | – | 38.6 | > 100 | > 100 | – | – | – | – | – | – | – | – | – | –
5 | Cc1ccc2[nH]c3c(C)c4c(c(C)c3c2c1)CN(C)C=C4 | 2.3 | 10.6 | 3 | 4.58 | 3.52 | 9.41 | 1.4 | 0.975 | 6.76 | – | – | – | 1.72 | – | – | – | – | – | –
6 | CC(=O)NC(CCCCN(Cc1ccccc1)C(=O)NCCCl)C(=O)NCc1ccccc1 (stereo unspecified) | > 100 | > 100 | > 100 | > 100 | > 100 | – | > 100 | > 100 | > 100 | – | – | – | – | – | – | – | – | – | –
7 | C#Cc1c(C)c(/C=C/C(C)=C/C=C/C(C)=C/C(=O)OC)n(C)c1C | > 100 | > 100 | > 100 | > 100 | – | > 100 | > 100 | > 100 | > 100 | – | – | – | – | – | – | – | – | – | –
8 | CCOC(=O)C1(C#N)C(c2ccccc2)CC(O)(c2ccc([N+](=O)[O-])cc2)C(C(=O)c2ccc([N+](=O)[O-])cc2)C1c1ccccc1 (stereo unspecified) | > 100 | > 100 | > 100 | > 100 | > 100 | > 100 | > 100 | > 100 | > 100 | – | – | – | – | – | – | – | – | – | –
9 | COc1ccc2c(c1O)C(=O)C(CCC(=O)O)CC2 (stereo unspecified) | > 100 | > 100 | > 100 | – | > 100 | – | > 100 | – | > 100 | – | – | – | – | – | – | – | – | – | –
10 | NC(=O)/C(=C\c1ccncc1)c1cccc2ccccc12 | > 100 | > 100 | > 100 | > 100 | – | > 100 | > 100 | > 100 | > 100 | – | – | – | – | – | > 100 | – | – | – | –
11 | CN(C)CCCNC(=O)c1ccc2oc3cc4ccccc4c(=O)n3c2c1 | > 50 | > 50 | > 50 | > 50 | – | – | > 50 | > 50 | – | 17.9 | 30.8 | 24.3 | > 50 | 16.5 | > 50 | – | 29.4 | 15.4 | –
